Data on one compound can be found in EP4497440A1, “USE OF 7-TRIFLUOROMETHYL-7ALPHA,25-DIHYDROXYCHOLESTEROL IN THE TREATMENT AND MODULATION OF AUTOIMMUNE AND INFLAMMATORY DISEASES OF THE NERVOUS SYSTEM AND NEURODEGENERATIVE DISEASES” (Gdanski Uniwersytet Medyczny, priority 2023, dated 2025).

This assay concerns white blood cells. Put plainly: Cuprizone model: blood morphology (white blood cell counts). Format: in vivo, mice. Here is the method: C (Fig 7) or #3 (Fig 8 and 9) vehicle control group - the mice were fed with chow containing cuprizone for 9 weeks, and then with regular chow without cuprizone for another 2 weeks. Over the 2 weeks on regular chow the mice in the vehicle control group were first injected vehicle #1: DMSO (intraperitoneal injection), 150 µl once a day, and then vehicle #2: canola oil, subcutaneously, 150 µl once a day.
#4 (Fig 8 and 9) barbadin control group - the mice were fed with chow containing cuprizone for 9 weeks, and then with regular chow without cuprizone for another 2 weeks. Over the 2 weeks on regular chow the mice in the group were injected barbadin 0.3 mg/kg, intraperitoneally, 150 µl once a day, and then vehicle #2: canola oil, subcutaneously, 150 µl once a day.
E (Fig 7) or #5 experimental group with oxysterol CF3-7α,25OHC - the mice were fed with chow containing cuprizone for 9 weeks, and then with regular chow without cuprizone for another 2 weeks. Over the 2 weeks on regular chow the mice in the group were injected vehicle #1: DMSO, intraperitoneally, 150 µl once a day, and CF3-7α,25OHC, dose: 20 mg/kg, subcutaneously, 150 µl once a day.
#6 (Fig 8 and 9) experimental group with barbadin + oxysterol CF3-7α,25OHC - the mice were fed with chow containing cuprizone for 9 weeks, and then with regular chow without cuprizone for another 2 weeks. Over the 2 weeks on regular chow the mice in the group were injected barbadin, 0.3 mg/kg, intraperitoneally, 150 µl once a day, and then one hour following the barbadin injection they were injected CF3-7α,25OHC, dose: 20 mg/kg, subcutaneously, 150 µl once a day.
The blood from the heart was sampled after the mice had been euthanised, and blood morphology test was performed using a standard diagnostic analyser. […] The lymphocyte count in peripheral blood of the mice which had been injected with CF3-7α,25OHC was lower by 50% compared to the control group of mice injected with vehicles (gr. #3 or C). The specific action of CF3-7α,25OHC leading to reduction of the lymphocyte count in blood finds confirmation in the results obtained for the mice of groups #4 (or D) and #6 (or F). Compared to the control group, the lymphocyte count in blood in the group of mice injected with barbadin (#4 or D) was lower only by 21%, and in the group of mice injected with barbadin + CF3-7α,25OHC by 7%. Following interaction with CF3-7α,25OHC, barbadin blocks internalisation of the EBI2 receptor from the cell membrane. The absence of any significant effect related to the treatment with barbadin or barbadin + CF3-7α,25OHC indicates a specific action of CF3-7α,25OHC on the EBI2 receptor and the consequential effects of that action, namely reduction of the count of circulating lymphocytes in blood. Moreover, the number of monocytes in group #5 (or E: mice treated with CF3-7α,25OHC) was lower by as much as 66% and the total leukocyte count (lymphocytes and monocytes included) was also substantially lower (by 51%), though only in the group of mice injected with CF3-7α,25OHC. In our subsequent in vivo tests (short-term pharmacology) we confirmed the action of CF3-7α,25OHC. In that test, too, it reduced the count of white blood cells. CF3-7α,25OHC reduces the lymphocyte count as early as following the 4 mg/kg dose and the effect lasts for 24 hours following administration.

The mark [1] stands for this setting: after 14 days of treatment during remyelination in the cuprizone model.

The structures appear in SMILES notation. Where “and” joins values, the source holds several entries; their conditions need not be identical. Identical values can stand only once. Entries after “also recorded” stand apart in the source; their conditions may differ.

`C[C@H](CCCC(C)(C)O)[C@H]1CC[C@H]2[C@H]3[C@H](CC[C@]12C)[C@@]1(C)CC[C@H](O)CC1=C[C@]3(O)C(F)(F)F` [CF3-7α,25OHC, cholestene-7β-trifluoromethyl,3β,7α,25-triol]: under setting [1], the drop in eosinophils was determined as 43%, the drop in monocytes stood at 66% and the drop in neutrophils is given as 14%. Further, the “drop in the total number of white blood cells (total leukocyte count)” value (after 14 days of treatment during remyelination in the cuprizone model, compared to vehicle group) was 51%. Besides, the “drop in lymphocytes (lymphocyte count in peripheral blood lower by)” value (after 14 days of treatment in the cuprizone model, CF3-7α,25OHC 20 mg/kg s.c., barbadin 0.3 mg/kg i.p., compared to vehicle group #3) is 51% and 50%. The “number of white blood cells (leukocytes, lymphocytes, monocytes)” value (cuprizone model, group #5 (E)) is listed as “went down; also recorded: substantially reduced”.
